Test results as given in patent US5714155A, “Ethylenediamine derivative in a cosmetic or dermatological composition, and composition containing in particular a product having an irritant side effect” (Societe L'oreal S.A., priority 1994, dated 1998).

Test system: contraction of guinea pig ileum by substance P
Experiment: Antagonism of the in vitro contraction of guinea pig ileum by substance P
Type: cell-based
Conditions: for substance P antagonism (conclusion of the tests): conclusion from NK1 binding and guinea pig ileum tests
Description: b). Model of antagonism of the in vitro contraction of guinea pig ileum by substance P (10 nM) according to the technique described by Dion et al., Life Sci. 41: 2269-78 (1987) and Patacchini et al., Eur. J. Pharmacol. 215: 93-8 (1992).

| SMILES | substance P antagonism (conclusion of the tests) | inhibition at 1 µM (Cavia porcellus, 1 μM, substance P 10 nM) [%] | inhibition at 10 µM (Cavia porcellus, 10 μM, substance P 10 nM) [%] | inhibition at 100 µM (Cavia porcellus, 100 μM, substance P 10 nM) [%] |
| --- | --- | --- | --- | --- |
| COc1cc(CNCCNCc2cc(OC)cc(OC)c2)cc(OC)c1 [Example 2, N,N'-bis(3,5-dimethoxybenzyl)ethylenediamine] | substance P antagonists |  |  |  |
| Cc1cc(C)cc(CNCCNCc2cc(C)cc(C)c2)c1 [Example 1, N,N'-bis(3,5-dimethylbenzyl)ethylenediamine] | substance P antagonists | -24 | -92 | -100 |
